Results: ChEMBL document CHEMBL3593211, “Digging Deep for New Compounds from the Compass Plant, Silphium laciniatum” (J Nat Prod, 2015)
pIC50: −log10 of the molar value.

System: NCI-H460
Assay: Cytotoxicity against human NCI-H460 cells incubated for 72 hrs by cell-titer 96 aqueous non-radioactive cell proliferation assay
Assay type: functional, cell-based
Conditions: NCI-H460, 72 h

Molecule CC(=O)OC/C(=C/CO)[C@@H]1C[C@@H]2[C@@]3(C)CCCC(C)(C)[C@@H]3CC[C@@]2(C)O1 has a pIC50 of less than 5.00.
With CC1(C)CCC[C@]2(C)[C@H]3C[C@@H](/C(=C\CO)CO)O[C@]3(C)CC[C@@H]12 the pIC50 was less than 5.00.
CC(=O)OC[C@]1([C@@H]2C[C@@H]3[C@@]4(C)CCCC(C)(C)[C@@H]4CC[C@@]3(C)O2)O[C@H]1CO showed a pIC50 of less than 5.00.
Work on CC(=O)OCC(O)(C(O)CO)[C@@H]1C[C@@H]2[C@@]3(C)CCCC(C)(C)[C@@H]3CC[C@@]2(C)O1 (some centres undefined) yielded a pIC50 of less than 5.00.
Work on CC(=O)OCC(O)C(O)(CO)[C@@H]1C[C@@H]2[C@@]3(C)CCCC(C)(C)[C@@H]3CC[C@@]2(C)O1 (some centres undefined) yielded a pIC50 of less than 5.00.
CC1(C)CCC[C@]2(C)[C@H]3C[C@@H](C(O)(CO)C(O)CO)O[C@]3(C)CC[C@@H]12 (some centres undefined) gave a pIC50 of less than 5.00.
With C/C(=C\CC/C=C(\C)CC/C=C(\C)CCC(O)C(C)(C)O)C/C=C/[C@@]1(C)CC[C@@H](C(C)(C)O)O1 (some centres undefined) the pIC50 was 5.05.
C/C(=C\CCC/C(C)=C/C(=O)C[C@@]1(C)CC[C@@H](C(C)(C)O)O1)CC/C=C(\C)CCC(O)C(C)(C)O (some centres undefined) gave a pIC50 of 5.22.
For CC1(C)CC[C@]2(C(=O)O)CC[C@]3(C)C(=CC[C@@H]4[C@@]5(C)CC[C@H](O[C@@H]6O[C@H](C(=O)O)[C@@H](O)[C@H](O)[C@H]6OC6O[C@H](CO)[C@@H](O)[C@H](O)[C@H]6O)C(C)(C)[C@@H]5CC[C@]43C)[C@@H]2C1 (some centres undefined), the pIC50 was 5.15.
Work on CC1(C)CCC[C@]2(C)[C@H]3C[C@@H]([C@@]4(CO)O[C@H]4CO)O[C@]3(C)CC[C@@H]12 yielded a pIC50 of less than 5.00.
In the case of CC(=O)OC[C@@]1([C@@H]2C[C@@H]3[C@@]4(C)CCCC(C)(C)[C@@H]4CC[C@@]3(C)O2)O[C@@H]1CO, the pIC50 was less than 5.00.
CC1(C)CCC[C@]2(C)[C@H]3C[C@@H]([C@]4(CO)O[C@@H]4CO)O[C@]3(C)CC[C@@H]12 was tested, and the pIC50 was less than 5.00.
C/C(=C\CC/C=C(\C)CC/C=C(\C)CC[C@@H](O)C(C)(C)O)CC/C=C(\C)CC[C@@H](O)C(C)(C)O gave a pIC50 of 5.15.
CC1(C)CC[C@]2(C(=O)O)CC[C@]3(C)C(=CC[C@@H]4[C@@]5(C)CC[C@H](O[C@@H]6O[C@H](C(=O)O)[C@@H](O)[C@H](O)[C@H]6O)C(C)(C)[C@@H]5CC[C@]43C)[C@@H]2C1 was tested, and the pIC50 was 5.22.
